Measured values reported in patent US12600725B2 (Memorial Sloan-Kettering Cancer Center, priority 2013, dated 2026).
Like-named read-outs stand apart in the source and are kept apart here.

What was measured:
Hsp90 = Hsp90 (Homo sapiens, UniProt P08238); details: McLaughlin et al. 2004; read-out: reported interaction with Hsp90; cited from earlier work
Hsp90α [1] = target: T1, Hsp90α (Homo sapiens, UniProt P07900)
Hsp90β [2] = target: T2, Hsp90β (Homo sapiens, UniProt P08238); details: Richter et al. 2008; read-out: reported binding to Hsp90β; cited from earlier work
T2 sequence (P08238 whole entry): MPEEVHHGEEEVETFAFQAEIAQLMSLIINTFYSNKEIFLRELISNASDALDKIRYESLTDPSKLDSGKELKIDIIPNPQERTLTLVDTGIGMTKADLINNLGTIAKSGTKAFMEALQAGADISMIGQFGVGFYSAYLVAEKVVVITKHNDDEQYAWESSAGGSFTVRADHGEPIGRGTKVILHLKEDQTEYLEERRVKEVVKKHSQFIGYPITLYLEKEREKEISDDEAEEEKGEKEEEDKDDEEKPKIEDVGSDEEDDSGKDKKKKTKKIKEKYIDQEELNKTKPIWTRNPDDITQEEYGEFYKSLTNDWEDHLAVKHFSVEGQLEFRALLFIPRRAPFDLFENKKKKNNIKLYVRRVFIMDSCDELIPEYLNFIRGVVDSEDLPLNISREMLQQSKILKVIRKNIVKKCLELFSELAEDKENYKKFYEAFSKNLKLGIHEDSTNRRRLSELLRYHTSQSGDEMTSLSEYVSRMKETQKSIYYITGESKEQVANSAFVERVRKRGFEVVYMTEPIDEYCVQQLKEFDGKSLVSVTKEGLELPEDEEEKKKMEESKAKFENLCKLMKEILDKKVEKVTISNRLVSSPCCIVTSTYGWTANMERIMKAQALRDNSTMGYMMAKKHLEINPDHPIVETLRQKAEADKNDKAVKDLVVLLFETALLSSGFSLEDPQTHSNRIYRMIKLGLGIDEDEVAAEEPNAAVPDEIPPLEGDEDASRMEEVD

Trap-1 [3] = target: T3, Trap-1 (Homo sapiens, UniProt Q12931); details: read-out: Trap-1 IC50; 43a as FP probe
T3 sequence (Q12931 60-704): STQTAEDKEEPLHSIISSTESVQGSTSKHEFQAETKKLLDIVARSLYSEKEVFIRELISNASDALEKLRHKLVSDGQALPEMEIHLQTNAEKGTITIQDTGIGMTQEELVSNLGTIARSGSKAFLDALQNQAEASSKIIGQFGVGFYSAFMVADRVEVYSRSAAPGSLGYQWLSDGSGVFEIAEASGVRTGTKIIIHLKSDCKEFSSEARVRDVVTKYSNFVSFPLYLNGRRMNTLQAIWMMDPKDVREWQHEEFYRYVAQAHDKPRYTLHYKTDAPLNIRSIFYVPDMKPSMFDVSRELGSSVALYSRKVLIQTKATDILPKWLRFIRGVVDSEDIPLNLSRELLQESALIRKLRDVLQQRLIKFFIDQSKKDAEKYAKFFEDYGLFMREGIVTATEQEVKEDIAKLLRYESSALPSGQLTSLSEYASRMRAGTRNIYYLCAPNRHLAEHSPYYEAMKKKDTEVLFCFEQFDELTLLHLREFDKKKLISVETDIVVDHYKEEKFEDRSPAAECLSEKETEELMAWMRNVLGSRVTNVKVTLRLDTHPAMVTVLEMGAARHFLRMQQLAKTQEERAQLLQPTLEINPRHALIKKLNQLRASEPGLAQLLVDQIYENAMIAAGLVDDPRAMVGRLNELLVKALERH

Hsp90β [4] = target: T2, Hsp90β
Grp94 [5] = target: T4, Grp94 (Canis lupus familiaris, UniProt P41148)
T4 sequence (P41148 with tags, fused parts or gaps DELINS287-327GGGG): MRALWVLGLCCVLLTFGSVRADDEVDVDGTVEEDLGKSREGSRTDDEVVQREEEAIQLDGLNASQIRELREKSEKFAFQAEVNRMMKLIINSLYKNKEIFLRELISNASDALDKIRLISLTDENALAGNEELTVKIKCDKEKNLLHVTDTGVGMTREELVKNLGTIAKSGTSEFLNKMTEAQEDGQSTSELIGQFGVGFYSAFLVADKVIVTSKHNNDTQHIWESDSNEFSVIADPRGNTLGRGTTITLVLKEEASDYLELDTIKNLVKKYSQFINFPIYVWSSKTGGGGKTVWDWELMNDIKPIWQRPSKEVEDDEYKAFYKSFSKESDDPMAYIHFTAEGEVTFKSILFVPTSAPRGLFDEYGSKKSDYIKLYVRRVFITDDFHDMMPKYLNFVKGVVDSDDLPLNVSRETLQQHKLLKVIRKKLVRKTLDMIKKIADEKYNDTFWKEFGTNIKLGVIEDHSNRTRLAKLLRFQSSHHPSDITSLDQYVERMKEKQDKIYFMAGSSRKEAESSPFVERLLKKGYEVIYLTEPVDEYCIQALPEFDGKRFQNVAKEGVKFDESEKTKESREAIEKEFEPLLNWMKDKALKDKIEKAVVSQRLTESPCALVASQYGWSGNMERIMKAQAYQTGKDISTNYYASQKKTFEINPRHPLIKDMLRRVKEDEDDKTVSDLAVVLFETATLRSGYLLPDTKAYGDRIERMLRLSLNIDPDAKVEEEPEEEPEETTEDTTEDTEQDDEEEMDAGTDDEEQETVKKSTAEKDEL

Hsp90α [6] = target: T1, Hsp90α; details: Richter et al. 2008; read-out: reported binding to Hsp90α; cited from earlier work
Trap-1 [7] = target: T3, Trap-1; set-up: purchased Enzo Life Sciences ADI-SPP-848; details: cited from earlier work
Hsp90β [8] = target: T2, Hsp90β; experiment: Hsp90 FP saturation binding assay of FP probes; details: saturation binding of FP probe; read-out: apparent Kd
Method: (§1) We next determined, in a standard saturation binding experiment that measures ligand binding in the presence of varying concentration of protein, the ability of these ligands as probes for the Hsp90 paralogs (FIGS. 22b-c).
(§2) Hsp90 saturation binding assay. […] The assay window was calculated as the difference between the FP value recorded for the bound fluorescent tracer and the FP value recorded for the free fluorescent tracer (defined as mP-mPf).

Hsp90α [9] = target: T1, Hsp90α; experiment: Hsp90 FP saturation binding assay of FP probes; details: saturation binding of FP probe; read-out: apparent Kd
Method: as §1, §2

Trap-1 [10] = target: T3, Trap-1; experiment: Hsp90 FP saturation binding assay of FP probes; set-up: purchased Enzo Life Sciences ADI-SPP-848; details: saturation binding of FP probe; read-out: apparent Kd
Method: as §1, §2

Grp94 [11] = target: T4, Grp94; experiment: Hsp90 FP saturation binding assay of FP probes; set-up: other: 43a as FP probe; Grp94; apparent Kd; assay window; other: probe 115a; details: saturation binding of FP probe
Method: as §1, §2

[12] = read-out: Hsp90α IC50, 43a as FP probe
[13] = read-out: binding affinity (FP competition), probe 115a
[14] = read-out: Hsp90β IC50, 43a as FP probe
[15] = read-out: Grp94 IC50, 43a as FP probe

Chain of Hsp90 (P08238 whole entry): as the sequence (P08238 whole entry) above

Q: Which Kd (Hsp90) does the source give for `Nc1ncnc2c1ncn2[C@@H]1O[C@H](COP(=O)(O)OP(=O)(O)O)[C@@H](O)[C@H]1O` [ADP] here?
A: 41 µM

Q: And the IC50 (Hsp90α [1]; [12])?
A: 59.3 µM

Q: What about the IC50 (Hsp90α [1]; [13]) of the same molecule?
A: 59 µM

Q: What about the Kd (Hsp90β [2]) of the same molecule?
A: 34 µM

Q: What about the IC50 (Trap-1 [3]) of the same molecule?
A: 55.6 µM

Q: And the IC50 (Hsp90β [4]; [14])?
A: 42.2 µM

Q: What about the IC50 (Hsp90β [4]; [13]) of the same molecule?
A: 42 µM

Q: What about the IC50 (Grp94 [5]; [15]) of the same molecule?
A: 11.4 µM

Q: What about the IC50 (Grp94 [5]; [13]) of the same molecule?
A: 11.4 µM

Q: What about the Kd (Hsp90α [6]) of the same molecule?
A: 51 µM

Q: Which results are given for `Nc1ncnc2c1ncn2[C@@H]1O[C@H](COP(=O)(O)OP(=O)(O)OP(=O)(O)O)[C@@H](O)[C@H]1O` [ATP]?
A: Kd (Hsp90): 840 µM; IC50 (Hsp90α [1]; [12]): 861 µM; reported greater affinity of Trap-1 than Hsp90 (Trap-1 [7]): approximately 10 fold; IC50 (Trap-1 [3]): 31.3 µM; IC50 (Hsp90β [4]; [14]): 894 µM; IC50 (Grp94 [5]; [15]): 3.24 µM; IC50 (Grp94 [5]; [13]): 3.2 µM

Q: Which results are given for `C[C@@H](NCCCn1c(Sc2cc(Cl)cc(Cl)c2)nc2c(N)ncnc21)C1CC1` [Compound 40]?
A: Kd (Hsp90β [8]): 0.0028 µM; Kd (Hsp90α [9]): 0.0039 µM; Kd (Trap-1 [10]): 0.0058 µM; assay window (Grp94 [11]): less than 100 mP; Kd (Grp94 [11]; read-out: apparent Kd): 0.0307 µM
